Patent US7888059B2, “Highly purified and stabilized Na,K-ATPase isoforms and methods of producing same” (Yeda Research and Development Co. Ltd., priority 2006, dated 2011)
Read-outs that look alike come from different tables or passages of the source.

Experiments:
Assay type in all cases: biochemical
human α1β1 [1] = molecular target: T1, human α1β1 (Homo sapiens, UniProt P05023); test: Stabilization of human α1β1 Na,K-ATPase activity over time (lipids, sterols, FXYD1); conditions: for stabilizing effect of sterol on Na,K-ATPase activity: human α1β1 prepared with DOPS or DOPC, FIGS. 9A-B
T1 construct: The coding regions were excised with XbaI and subcloned; made in house; host or cells: Pichia pastoris SMD1165
Procedure: (§1) Urea-treated membranes were homogenized with n-dodecyl-β-maltoside (DDM:protein, 2:1 w/w) (cat. No D310, Anatrace) in a medium containing NaCl, 250 mM; Tris.HCl, 20 mM pH 7.4; imidazole, 5 mM; PMSF, 0.5 mM; and glycerol, 10%. The protein concentration could be varied from 1-5 mg/ml and DDM adjusted accordingly from 2-10 mg/ml respectively. The unsolubilized material was removed by ultracentrifugation. Purification was done by metal-chelate chromatography using BD Talon, metal affinity resin (Co^2+-chelate). The DDM-solubilized membranes were incubated overnight at 4° C. with BD Talon beads, at a ratio of 100 μl beads per supernatant from 10 mg of membranes. EDTA was added at 50-250 μM at protein concentrations 1-5 mg/ml, respectively. The beads were washed twice for five minutes with vortexing with five volumes of a solution containing NaCl, 100 mM; Tris.HCl, 20 mM pH 7.4; C12E8, 0.1 mg/ml; DOPS or SOPS 0.05 mg/ml or other lipids and cholesterol at 0.01 mg/ml, as indicated; glycerol, 10%, and imidazole, 10 mM. Protein was eluted by mixing the beads for 40 minutes at 0° C. with one volume of a solution containing imidazole, 150 mM; NaCl, 100 mM; Tris.HCl, 20 mM pH 7.4, C12E8, 0.1 mg/ml; DOPS, or SOPS 0.05 mg/ml or other lipids and cholesterol as indicated; glycerol, 10%. The eluted protein was stored at 0° C. […] Protein concentration was determined by comparative gel densitometry with pig kidney Na^+,K^+-ATPase or by Lowry assay.
(§2) Na^+,K^+-ATPase assays were done as described in (Cohen et al., 2005, J Biol Chem, 280, 16610-16618; Strugatsky et al., 2003, J Biol Chem, 278, 46064-46073). 0.1-0.2 μg of purified protein was incubated at 37° C. for 2-10 min in 0.1 ml of Na,K-ATPase reaction medium containing 130 mM NaCl; 20 mM KCl; 3 mM MgCl2; 25 mM Histidine pH 7.4. The reaction was started by addition of 2 mM ATP [^32P-ATP].
(§3) Aliquots of the preparations were incubated either at 37° C. or 45° C., respectively, for the indicated times, and then returned to 0° C., prior to measurement of Na,K-ATPase activity.

porcine α1β1 = molecular target: T2, porcine α1β1 (Sus scrofa, UniProt P05024); test: Na,K-ATPase activity of porcine α1β1 with different phospholipids (FIG. 6A); conditions: porcine α1β1, FIG. 6A
T2 construct: made in house; host or cells: Pichia pastoris SMD1165
Procedure: as §1, §2
Both DOPS and DOPI are acid phospholipids, while DOPC and DOPE have no net charge.

Na,K-ATPase = Na,K-ATPase activity and stability with different phosphatidyl serines (FIG. 7); conditions: for NKA activity: measured immediately after elution from the BD Talon beads
Procedure: as §1, §2
The experiment in FIG. 7 compared the stability with different chain lengths and saturation of the side chains.

human α1β1 [2] = molecular target: T1, human α1β1; test: Initial Na,K-ATPase activity of human α1β1 prepared with phospholipid with or without cholesterol; conditions: human α1β1, initial activity following elution from the beads, 37° C.
Procedure: as §1, with “mM.” for “mM. Protein was eluted by mixing the beads for 40 minutes at 0° C. with one volume of a solution containing imidazole, 150 mM; NaCl, 100 mM; Tris.HCl, 20 mM pH 7.4, C12E8, 0.1 mg/ml; DOPS, or SOPS 0.05 mg/ml or other lipids and cholesterol as indicated; glycerol, 10%. The eluted protein was stored at 0° C.”, “assay. […]” for “assay.”

human α2β1 [3] = molecular target: T3, human α2β1 (Homo sapiens, UniProt P50993); test: biochemical
T3 construct: The coding regions were excised with XbaI and subcloned; made in house; host or cells: Pichia pastoris SMD1165 (clone "b", induced at 20° C.)
Procedure: as §2
(§4) The inhibitor was added directly to the reaction medium at 37° C. immediately prior to addition of ATP, which starts the reaction.

human α1β1 [4] = molecular target: T1, human α1β1; test: biochemical
Procedure: as §2, §4

human α2β1 [5] = molecular target: T3, human α2β1; test: Stabilization of human α2β1 Na,K-ATPase activity over time (lipids, sterols, FXYD1); conditions: for stabilizing effect of sterol on α2β1 complex: 0° C., together with DOPS
Procedure: as §1, §2, §3

human α1β1 [6] = test: Stabilization of human α1β1 Na,K-ATPase activity over time (lipids, sterols, FXYD1)
Procedure: as §1, §2, §3

Molecule: CCCCCCCC/C=C\CCCCCCCC(=O)OC[C@H](COP(=O)(O)OC[C@H](N)C(=O)O)OC(=O)CCCCCCC/C=C\CCCCCCCC [DOPS, 1,2-Dioleoyl-sn-Glycero-3-[Phospho-L-Serine]]
- half-time for loss of activity (human α1β1 [1]; 37° C., human α1β1 prepared with DOPS, without PLM): about 70 minutes
- remaining activity, of initial activity (human α1β1 [1]; after 120 minutes at 37° C., human α1β1 prepared with DOPS, without PLM): approximately 20%
- maintenance of Na,K-ATPase activity with phospholipid (porcine α1β1): DOPS>DOPI>>DOPE
- NKA activity (Na,K-ATPase): 11.42 µmol/min/mg
- Na, K-ATPase activity (human α1β1 [2]): 11.64 µmol/min/mg

Molecule: CCCCCCCCCCCCCCCC(=O)OC[C@H](COP(=O)(O)OC[C@H](N)C(=O)O)OC(=O)CCCCCCCCCCCCCCC [DPPS, 1,2-Dipalmitoyl-sn-Glycero-3-[Phospho-L-Serine]]
- NKA activity (Na,K-ATPase): 6.46 µmol/min/mg

Molecule: CO[C@H]1[C@H](O)[C@H](O[C@H]2CC[C@@]3(C)[C@H](CC[C@@H]4[C@@H]3CC[C@]3(C)[C@@H](C5=CC(=O)OC5)CC[C@]43O)C2)O[C@@H](C)[C@@H]1O [neriifolin]
- offset, α2 (human α2β1 [3]; 37° C., FIG. 18B): 0.12
- IC50 (human α2β1 [3]; K0.5 for inhibition, α2, 37° C., FIG. 18B, reaction time not stated): 29 ± 4.1 nM
- offset, α1 (human α1β1 [4]; 37° C., FIG. 18B): 0
- IC50 (human α1β1 [4]; K0.5 for inhibition, α1, 37° C., FIG. 18B, reaction time not stated): 50 ± 7 nM
- α1/α2 preference (human α1β1 [4]; conditions of the Na,K-ATPase reaction at 37° C.): no significant α1/α2 preference

Molecule: CC(C)CCC[C@@H](C)[C@H]1CC[C@H]2[C@@H]3CC=C4C[C@@H](O)CC[C@]4(C)[C@H]3CC[C@]12C [cholesterol]
- stabilizing effect of sterol on α2β1 complex (human α2β1 [5]): greatly stabilized
- stabilizing effect of sterol on Na,K-ATPase activity (human α1β1 [1]; 37° C.): greatly stabilizes

Molecule: C[C@H]1O[C@@H](O[C@H]2[C@@H](O)C[C@H](O[C@H]3[C@@H](O)C[C@H](O[C@H]4CC[C@@]5(C)[C@H](CC[C@@H]6[C@@H]5C[C@@H](O)[C@]5(C)[C@@H](C7=CC(=O)OC7)CC[C@]65O)C4)O[C@@H]3C)O[C@@H]2C)C[C@H](O)[C@@H]1O [digoxin]
- offset (activity not inhibited), α2β1 (human α2β1 [3]): 0.058±0.016
- offset (activity not inhibited), α1β1 (human α1β1 [4]): no significant offset

Molecule: C[C@@H]1O[C@@H](O[C@H]2C[C@@H](O)[C@]3(CO)[C@H]4[C@H](O)C[C@]5(C)[C@@H](C6=CC(=O)OC6)CC[C@]5(O)[C@@H]4CC[C@]3(O)C2)[C@H](O)[C@H](O)[C@H]1O [ouabain]
- offset (activity not inhibited), α2β1 (human α2β1 [3]; 37° C., 60 minutes): 0.056±0.017
- offset (activity not inhibited), α2β1 (human α2β1 [3]; 37° C., reaction 10 minutes): 0.069±0.01
- extent of inhibition of α1β1 (human α1β1 [4]; 37° C., reaction 10 minutes): fully inhibited

Molecule: CCCCCCCC/C=C\CCCCCCCC(=O)OC[C@H](COP(=O)([O-])OCC[N+](C)(C)C)OC(=O)CCCCCCC/C=C\CCCCCCCC [DOPC, 1,2-Dioleoyl-sn-Glycero-3-Phosphocholine]
- maintenance of Na,K-ATPase activity with phospholipid (porcine α1β1): somewhat lower initial Na,K-ATPase activity at 37 °C than for DOPS
- Na, K-ATPase activity (human α1β1 [2]): 14.28 µmol/min/mg

Molecule: CC(C)[C@@H](C)/C=C/[C@@H](C)[C@H]1CC[C@H]2C3=CC=C4C[C@@H](O)CC[C@]4(C)[C@H]3CC[C@]12C [ergosterol]
- stabilizing effect of sterol on α2β1 complex (human α2β1 [5]): much less effective than cholesterol
- stabilizing effect of sterol on Na,K-ATPase activity (human α1β1 [1]; 37° C.): only a minor stabilizing effect

Molecule: CCCCCCCC/C=C\CCCCCCCC(=O)OC[C@H](COP(=O)(O)OC1C(O)C(O)C(O)[C@@H](O)C1O)OC(=O)CCCCCCC/C=C\CCCCCCCC (some centres unmarked) [DOPI, 1,2-Dioleoyl-sn-Glycero-3-Phosphoinositol]
- maintenance of Na,K-ATPase activity with phospholipid (porcine α1β1): DOPS>DOPI>>DOPE

Molecule: PLM: human FXYD1, subsidiary subunit of Na,K-ATPase, Genbank Accession No. H23593
- stability of Na,K-ATPase activity (human α2β1 [5]; 37° C., α2β1 prepared with SOPS/cholesterol with PLM): essentially stable for 60 minutes at 37 °C
- stability of Na,K-ATPase activity (human α1β1 [6]; 37° C., human α1β1, PLM with DOPS preparation, SOPS/cholesterol without PLM): essentially no loss of activity up to 120 minutes

Molecule: CCCCCCCCCCCCCCCCCC(=O)OC[C@H](COP(=O)(O)OC[C@H](N)C(=O)O)OC(=O)CCCCCCCCCCCCCCCCC [DSPS, 1,2-Distearoyl-sn-Glycero-3-[Phospho-L-Serine]]
- NKA activity (Na,K-ATPase): 4.72 µmol/min/mg

Molecule: CCCCCCCCCCCCCC(=O)OC[C@H](COP(=O)(O)OC[C@H](N)C(=O)O)OC(=O)CCCCCCCCCCCCC [DMPS, 1,2-Dimyristoyl-sn-Glycero-3-[Phospho-L-Serine]]
- NKA activity (Na,K-ATPase): 11.48 µmol/min/mg

Molecule: CCCCCCCC/C=C\CCCCCCCC(=O)O[C@H](COC(=O)CCCCCCCCCCCCCCCCC)COP(=O)(O)OC[C@H](N)C(=O)O [SOPS, I-Stearoyl-2-Oleoyl-sn-Glycero-3-[Phospho-L-Serine]]
- stabilizing effect of phosphatidyl serine on α1β1 (human α1β1 [6]; 37° C. and 0° C., FIGS. 8A-B (porcine and human α1β1)): significantly more stabilizing than DOPS
- stability of Na,K-ATPase activity over time (Na,K-ATPase; 0° C., FIG. 7): declined even more slowly than with the standard DOPS
- NKA activity (Na,K-ATPase): 11.92 µmol/min/mg

Molecule: CCCCCCCC/C=C\CCCCCCCC(=O)OC[C@H](COP(=O)(O)OCCN)OC(=O)CCCCCCC/C=C\CCCCCCCC [DOPE, 1,2-Dioleoyl-sn-Glycero-3-Phosphoethanolamine]
- maintenance of Na,K-ATPase activity with phospholipid (porcine α1β1): DOPS>DOPI>>DOPE

Molecule: CCCCCCCC/C=C\CCCCCCCC(=O)O[C@H](COC(=O)CCCCCCCCCCCCCCC)COP(=O)(O)OC[C@H](N)C(=O)O [POPS, 1-Palmitoyl-2-Oleoyl-sn-Glycero-3-[Phospho-L-Serine]]
- NKA activity (Na,K-ATPase): 12.58 µmol/min/mg
